The test system of test [1] is GH release. Nature of the test: GH releasing potency in vivo, subcutaneous administration (Example 14, Table 12). Set-up: species or system rat. The settings on record: s.c. An outline of the steps: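 Potency is expressed relative to GHRH(1-29)NH2 and JI-38 (each = 1), via equivalent GHRH(1-29)NH2 dose read from a standard curve. Peptides in 5% mannitol given i.v. or s.c. to anaesthetised male Sprague-Dawley rats (200-250 g); serum GH measured by ELISA at selected times.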

Test [2] deals with T1, GHRH receptor (Homo sapiens, UniProt Q02643).
T1 sequence (Q02643 23-423): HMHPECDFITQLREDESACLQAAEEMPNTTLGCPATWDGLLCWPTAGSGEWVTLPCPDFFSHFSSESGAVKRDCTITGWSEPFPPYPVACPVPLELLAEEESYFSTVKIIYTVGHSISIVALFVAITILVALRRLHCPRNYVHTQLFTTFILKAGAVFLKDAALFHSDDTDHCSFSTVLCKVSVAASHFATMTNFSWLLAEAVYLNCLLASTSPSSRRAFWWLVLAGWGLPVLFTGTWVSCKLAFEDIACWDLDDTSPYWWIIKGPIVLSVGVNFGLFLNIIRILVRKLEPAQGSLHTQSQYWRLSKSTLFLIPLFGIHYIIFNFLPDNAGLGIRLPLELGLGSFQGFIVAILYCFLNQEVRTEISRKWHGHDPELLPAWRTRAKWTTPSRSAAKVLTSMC
In words: GHRH receptor binding, competition with 125I-labeled JV-1-42, human pituitary membrane homogenates (Table 7). Set-up: Normal human pituitaries were purchased from the National Hormone and Peptide Program; tissue National Hormone and Peptide Program (A.F. Parlow, Harbor-UCLA Medical Center, Torrance, Calif.); host or cells: normal human pituitary, membrane fraction. The settings on record: JI-38 = 1, Table 7. The source says:
Normal human pituitaries were purchased from the National Hormone and Peptide Program (A.F. Parlow, Los Angeles, County Harbor-UCLA Medical Center, Torrance, Calif.).

The target of test [3] is T1, GHRH receptor. In words: GHRH receptor binding, competition with 125I-labeled JV-1-42, human pituitary membrane homogenates (Table 5). Set-up: Normal human pituitaries were purchased from the National Hormone and Peptide Program; tissue National Hormone and Peptide Program (A.F. Parlow, Harbor-UCLA Medical Center, Torrance, Calif.); host or cells: normal human pituitary, membrane fraction. The protocol:
Normal human pituitaries were purchased from the National Hormone and Peptide Program (A.F. Parlow, Los Angeles, County Harbor-UCLA Medical Center, Torrance, Calif.). Briefly, in competitive binding analysis, ^125I-labeled JV-1-42 ([…]) was displaced by GHRH agonists at 10^−6 to 10^−12 M.
The final binding affinities were expressed as IC50 values and were calculated by using the LIGAND PC computerized curve-fitting program of Munson and Rodbard as modified by McPherson.

Test [4] concerns GH release. Nature of the test: In vivo endocrine activity, GH release after intravenous administration (Table 8). The settings on record: rat, i.v. injection.
The target of test [5] is T1, GHRH receptor. In words: Receptor binding in vitro, 125I-labeled [His1,Nle27]-hGHRH(1-32)NH2, membrane receptors of human anterior pituitary cells (Table 14).
Text: Normal human pituitary was purchased from the National Hormone and Peptide Program (UCLA Medical Center, Torrance, Calif.).
The subject of test [6] is GH release. In words: GH releasing potency in vivo, intravenous administration (Example 14, Table 13). Set-up: species or system rat. To be noted: i.v. The procedure:
Male Sprague-Dawley rats, weighing 200-250 g, were purchased from Charles River Laboratory (Wilmington, Mass.) and used for experiments. All animal procedures were approved by the Veterans Affairs Animal Care and Use Committee and were conducted in accordance with additional institutional guidelines as well. Briefly, groups of 5-6 animals were used in each experiment. The rats were anesthetized with 50 mg/kg of sodium pentobarbital (Nembutal, Lundbeck Inc., Deerfield, Ill.). Twenty min after inducing anesthesia, GHRH(1-29)NH2, JI-38, or new analogs were injected into the animals intravenously (i.v.) or subcutaneously (s.c.). The peptides were dissolved in 0.01 M acetic acid to get 1 μg/μl stock solution, and then diluted with 5% mannitol. Control rats received 5% mannitol only. Blood samples were collected from the jugular vein at selected times and were used for serum preparation. Concentrations of GH in rat sera were determined by ELISA. The relative potencies of tested peptides were calculated using GHRH(1-29)NH2 and JI-38 for comparison, whose potency was defined as 1. The equivalent dosage of GHRH(1-29)NH2 to reach the same level of serum growth hormone release after injection of the specific tested peptide was determined from a GHRH(1-29)NH2 standard curve using Origin 6.0 software. […] Serum GH was determined using the rat Growth Hormone ELISA kit (ALPCO Diagnostics, Mill Valley, Calif.) according to the manufacturer's instruction. Absorbance at 405 nm was measured by a Victor 3 Multi-label Counter (Perkin-Elmer, Waltham, Md.).

The test system of test [7] is GH release. In words: In vivo endocrine activity, GH release after subcutaneous administration (Table 9). The settings on record: rat, subcutaneous (s.c.) injection. The procedure:
Subcutaneous Administration. Adult male rats were used and anesthetized with pentobarbital (6 mg/100 g, b.w.), by i.p. injection. […] Blood samples were taken from the jugular vein 5, 15 and/or 30 minutes after the injection. The blood samples were centrifuged, plasma was removed and the GH level was measured byELISA. The results are summarized in terms of potency in Table 9.

Non-standard residues stand in square brackets, D forms with d. Residues, ends and D or L forms follow the SMILES beside them. *: point of attachment. Desaminotyrosyl = O=C(CCc1ccc(O)cc1)*; Nle = CCCC[C@H](N)C(=O)O; Orn = NCCC[C@H](N)C(=O)O; Abu = CC[C@H](N)C(=O)O; GABA = NCCCC(=O)O

On to `CCCC[C@H](NC(=O)[C@@H](NC(=O)[C@H](CC(=O)O)NC(=O)[C@H](CCC(N)=O)NC(=O)[C@H](CC(C)C)NC(=O)[C@H](CC(C)C)NC(=O)[C@H](CCCN)NC(=O)[C@H](CCCNC(=N)N)NC(=O)[C@H](C)NC(=O)[C@H](CO)NC(=O)[C@H](CC(C)C)NC(=O)[C@H](CCC(N)=O)NC(=O)[C@H](CC)NC(=O)[C@H](CC(C)C)NC(=O)[C@@H](NC(=O)[C@H](CCCN)NC(=O)[C@H](CCCNC(=N)N)NC(=O)[C@H](Cc1ccc(O)cc1)NC(=O)[C@H](CO)NC(=O)[C@H](CC(N)=O)NC(=O)[C@@H](NC(=O)[C@H](Cc1ccccc1)NC(=O)[C@@H](NC(=O)[C@H](C)NC(=O)[C@H](CC(=O)O)NC(=O)[C@@H](C)NC(=O)CCc1ccc(O)cc1)[C@@H](C)CC)[C@@H](C)O)C(C)C)[C@@H](C)CC)C(=O)N[C@@H](CO)C(=O)N[C@@H](CCCNC(=N)N)C(=O)N[C@@H](CCC(N)=O)C(=O)NCCCC(N)=O` [Peptide P-29702, [Dat^1, D-Ala^2, Orn^12, Abu^15, Orn^21, Nle^27, Gln-Gab^30]hGHRH(1-30)NH2] (Desaminotyrosyl-[dA]DAIFTNSYR[Orn]VL[Abu]QLSAR[Orn]LLQDI[Nle]SRQ[GABA]-NH2), for which the “Serum GH level at selected time after injection (ng/ml), 0 min” value was 43.7 ± 5^ ng/ml with GH release [1] (male rats, dose 3 μg/kg, 0 min, mean ± SEM) and 47.7 ± 3.4 ng/mL in the test with GH release [6] (dose 1 μg/kg, 0 min, mean ± SEM). The “Serum GH level at selected time after injection (ng/ml), 15 min” value in the test on GH release [1] (male rats, dose 3 μg/kg, 15 min, mean ± SEM) was 103.7 ± 23.1 ng/mL; in the test with GH release [6] (dose 1 μg/kg, 15 min, mean ± SEM), 273 ± 40.8 ng/mL. Further, the “Serum GH level at selected time after injection (ng/ml), 30 min” value with GH release [1] (male rats, dose 3 μg/kg, 30 min, mean ± SEM) came to 85 ± 27.8 ng/mL. In addition, in the test on GH release [1] (15 min), the “Relative potency compared to GHRH(1-29), 15 min” value was 22.4. Also, the “Relative potency compared to JI-38, 15 min” value in the test with GH release [1] (15 min) is reported as 0.35. The “Relative potency compared to GHRH(1-29), 30 min” value in the test on GH release [1] (30 min) stood at 53.5. For the same molecule, the “Relative potency compared to JI-38, 30 min” value with GH release [1] (30 min) stood at 0.48. Further, the “Relative affinity (Binding potency) vs JI-38” value on GHRH receptor [2] is recorded as 5.06; at GHRH receptor [3] (JI-38 = 1, Table 5), 34.2. At GHRH receptor [3] (GHRH(1-29) = 1, Table 5), the “Relative affinity (Binding potency) vs GHRH” value is 81.2. In addition, the “GH releasing potency in vivo relative to JI-38 (=1)” value with GH release [4] (5 min after) was determined as 0.98; with GH release [4] (15 min after), 0.99; with GH release [4] (30 min after), 1.22. In addition, the “Relative affinity (Binding potency) compared to JI-38” value on GHRH receptor [5] (JI-38 = 1) is reported as 0.83. For the same molecule, the “Relative affinity (Binding potency) compared to hGHRH(1-29)” value on GHRH receptor [5] (hGHRH(1-29)NH2 = 1) amounted to 2.31. For the same molecule, the “Relative potency, 5 min” value with GH release [6] (5 min, JI-38 = 1) stood at 1.07. The “Relative potency, 15 min” value with GH release [6] (15 min, JI-38 = 1) is given as 1.38. Also, in the test on GH release [6] (dose 1 μg/kg, 5 min, mean ± SEM), the “Serum GH level at selected time after injection (ng/ml), 5 min” value is 578 ± 87.7 ng/mL. Moreover, the results for the “GH releasing potency relative to JI-38 (=1)” value with GH release [7] (15 min after) and in the test with GH release [7] (30 min after) were 0.53 and 0.73, respectively.

The values above are taken from patent US10555987B2, “GHRH agonists for the treatment of ischemic disorders” (UNIVERSITY OF MIAMI, priority 2012, dated 2020).
